Columns and labels:
Assay in all cases: relative viability (nuclei count vs DMSO), 5 days (fraction); higher = more cells survive
KN-93 + Lapatinib = compound: CN(C/C=C/C1=CC=C(C=C1)Cl)CC2=CC=CC=C2N(CCO)S(=O)(=O)C3=CC=C(C=C3)OC [KN-93] + CS(=O)(=O)CCNCc1ccc(-c2ccc3ncnc(Nc4ccc(OCc5cccc(F)c5)c(Cl)c4)c3c2)o1 [Lapatinib] (partner 2 µM)
Method in brief: (§1)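 Relative viability divides the nuclei count in treated wells by that in vehicle wells. Lung cancer cell lines were seeded in 1536-well plates, dosed by pin tool the next day, and fixed and stained after 5 days in one step with final 0.05% Triton X-100, 1% formaldehyde and 1 ug/ml Hoechst. Dosing was a single drug or a fixed anchor-drug dose plus five library-drug doses (not always all listed) in √10 steps, and values are medians of duplicate plates imaged at 4×.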

KN-93 + Phenformin = compound: CN(C/C=C/C1=CC=C(C=C1)Cl)CC2=CC=CC=C2N(CCO)S(=O)(=O)C3=CC=C(C=C3)OC [KN-93] + N=C(N)NC(=N)NCCc1ccccc1 [Phenformin] (partner 250 µM)
Method in brief: as §1

KN-93 + Dasatinib = compound: CN(C/C=C/C1=CC=C(C=C1)Cl)CC2=CC=CC=C2N(CCO)S(=O)(=O)C3=CC=C(C=C3)OC [KN-93] + Cc1nc(Nc2ncc(C(=O)Nc3c(C)cccc3Cl)s2)cc(N2CCN(CCO)CC2)n1 [Dasatinib] (partner 0.075 µM)
Method in brief: as §1

KN-93 + Alpelisib = compound: CN(C/C=C/C1=CC=C(C=C1)Cl)CC2=CC=CC=C2N(CCO)S(=O)(=O)C3=CC=C(C=C3)OC [KN-93] + Cc1nc(NC(=O)N2CCC[C@H]2C(N)=O)sc1-c1ccnc(C(C)(C)C(F)(F)F)c1 [Alpelisib] (partner 2 µM)
Method in brief: as §1

KN-93 + AZD7762 = compound: CN(C/C=C/C1=CC=C(C=C1)Cl)CC2=CC=CC=C2N(CCO)S(=O)(=O)C3=CC=C(C=C3)OC [KN-93] + NC(=O)Nc1cc(-c2cccc(F)c2)sc1C(=O)N[C@H]1CCCNC1 [AZD7762] (partner 0.2 µM)
Method in brief: as §1

Cell Line	relative viability (KN-93 + Lapatinib; first compound 0.08 µM)	relative viability (KN-93 + Lapatinib; first compound 0.253 µM)	relative viability (KN-93 + Lapatinib; first compound 2.53 µM)	relative viability (KN-93 + Lapatinib; first compound 8 µM)	relative viability (KN-93 + Phenformin; first compound 0.08 µM)	relative viability (KN-93 + Phenformin; first compound 0.253 µM)	relative viability (KN-93 + Phenformin; first compound 2.53 µM)	relative viability (KN-93 + Phenformin; first compound 8 µM)	relative viability (KN-93 + Dasatinib; first compound 0.08 µM)	relative viability (KN-93 + Dasatinib; first compound 0.253 µM)	relative viability (KN-93 + Dasatinib; first compound 2.53 µM)	relative viability (KN-93 + Dasatinib; first compound 8 µM)	relative viability (KN-93 + Alpelisib; first compound 0.08 µM)	relative viability (KN-93 + Alpelisib; first compound 0.253 µM)	relative viability (KN-93 + Alpelisib; first compound 2.53 µM)	relative viability (KN-93 + Alpelisib; first compound 8 µM)	relative viability (KN-93 + AZD7762; first compound 0.08 µM)	relative viability (KN-93 + AZD7762; first compound 0.253 µM)	relative viability (KN-93 + AZD7762; first compound 2.53 µM)	relative viability (KN-93 + AZD7762; first compound 8 µM)
COR-L23	0.846	1.47	0.901	0.508	0.432	0.569	0.583	0.387	0.505	0.45	0.595	0.354	0.743	1.01	0.745	0.601				
COR-L 105	0.451	0.318	0.318	0.367	0.559	0.443	0.517	0.366	0.363	0.277	0.302	0.239	0.866	0.991	0.918	0.74				
ChaGo-K-1					0.456	0.56	0.466	0.453	0.555	0.662	0.534	0.341					0.797	0.928	0.934	0.713
HCC-44	0.946	0.945	1.28	0.81	0.314	0.202	0.331	0.16					0.775	0.746	0.99	0.549	1.02	0.904	1.04	0.944
IA-LM	0.837	0.831	1.31	0.572									0.765	0.746	0.773	0.778				
LCLC-103H					0.319	0.341	0.359	0.31	0.438	0.464	0.438	0.26	1	0.994	0.92	0.861	0.732	0.808	0.822	0.626
NCI-H441					0.828	1.06	0.921	0.779	0.758	0.639	0.617	0.458		1.18	0.772	0.341		1.36	1.19	1.06
NCI-H520		0.904	1.05	0.727	0.732	0.769	0.842	0.451	0.203	0.197	0.258	0.155		1.38	1.05	0.763				
NCI-H522					0.666	0.704	0.741	0.636	0.825	0.949	0.846	0.695					0.831	0.811	0.876	0.77
NCI-H661	0.484	0.511	0.448	0.447	0.307	0.273	0.26	0.294	1.01	0.808	0.69	0.413	0.578	0.597	0.796	0.161				
